We go through 13 molecules from publication PMC4096222 (Journal of Medicinal Chemistry, 2014).

Like-named read-outs stand apart in the source and are kept apart here. A value given as a limit tells only on which side of the number the result lay.

Series [1] deals with A/PR/8/34 (A/H1N1). In kind it is cell-based, influenza A virus.
The subject of series [2] is A/HK/7/87 (A/H3N2). Nature of the series: microbe, parasite or virus in culture. In kind it is cell-based. To be noted: Influenza A virus, H3N2, MDCK, 72 h, read-out: antiviral EC50 values against A/HK/7/87 (range).
Series [3] deals with A/M2 wt (Influenza A virus, UniProt P0DOF5). In kind it is cell-based.
Sequence of A/M2 wt (P0DOF5 whole entry, looked up): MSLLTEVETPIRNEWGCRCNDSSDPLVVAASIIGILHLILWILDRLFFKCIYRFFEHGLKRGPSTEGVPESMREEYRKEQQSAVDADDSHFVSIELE
The subject of series [4] is MDCK cells. Conditions: for cytotoxicity MCC: minimum cytotoxic concentration, minimal alterations in cell morphology after 72 h, MDCK; for concentration at which visibly toxic: MDCK cells.
The subject of series [5] is A/HK/7/87. In kind it is cell-based, influenza A virus. To be noted: for inhibition of plaque formation: at 0.5–2 μM, 72 h.
The mark [6] stands for this setting: read-out: antiviral activity A/PR/8/34 EC50 (MTS).
Setting [7] is: read-out: antiviral activity A/PR/8/34 EC50 (CPE).

On to `NC12CC3CC(CC(C3)C1)C2` [amantadine, reference compound], for which, in series [1] (setting [6]), the EC50 came out at 34 µM.

With `C1=CC2C3CNCC3C1C1CC21.Cl` (centres unmarked) [compound 4, 4-Azatetracyclo[5.3.2.0^2,6.0^8.10]dodec-11-ene Hydrochloride], the EC50 was 3 to 8 µM in series [2], over 100 µM in series [1] (setting [7]) and over 100 µM in series [1] (setting [6]). Further, the “inhibition of wt channel” value in series [3] is given as “potent low-micromolar inhibitors”. For the same molecule, the “cytotoxicity MCC” value in series [4] stood at 100 µM. Moreover, the “activity in virus yield and plaque reduction assays” value in series [5] is recorded as “confirmed the activity”.

On to `Cl.N=C(N)N1CC2C3C=CC(C4CC34)C2C1` (centres unmarked) [compound 5, 4-Amidino-4-azatetracyclo[5.3.2.0^2,6.0^8.10]dodec-11-ene Hydrochloride], for which the “inhibition of wt channel” value in series [3] is listed as “potent low-micromolar inhibitors”. Besides, the “cytotoxicity MCC” value in series [4] worked out at 100 µM. In addition, the EC50 in series [1] (setting [7]) and in series [1] (setting [6]) was over 100 µM throughout.

On to `C1CC2C3CNCC3C1C1CC21.Cl` (centres unmarked) [compound 6, 4-Azatetracyclo[5.3.2.0^2,6.0^8.10]dodecane Hydrochloride], for which the results for the EC50 in series [2], in series [1] (setting [7]) and in series [1] (setting [6]) were 3 to 8 µM, over 100 µM and over 100 µM, respectively. Moreover, the “inhibition of wt channel” value in series [3] is “potent low-micromolar inhibitors”. Besides, the “cytotoxicity MCC” value in series [4] was determined as 100 µM. For the same molecule, in series [5], the “activity in virus yield and plaque reduction assays” value is listed as “confirmed the activity”.

For `Cl.N=C(N)N1CC2C3CCC(C4CC34)C2C1` (centres unmarked) [compound 7, 4-Amidino-4-azatetracyclo[5.3.2.0^2,6.0^8.10]dodecane Hydrochloride], the “inhibition of wt channel” value in series [3] is given as “potent low-micromolar inhibitors”. In addition, the “cytotoxicity MCC” value in series [4] is 100 µM. Further, the EC50 in series [1] (setting [7]) and in series [1] (setting [6]) was over 100 µM throughout.

Take `C1=CC2C3CC3C1C1CN(C3CCNCC3)CC21.Cl` (centres unmarked) [compound 8, 4-(4-Piperidinyl)-4-azatetracyclo[5.3.2.0^2,6.0^8.10]dodec-11-ene Dihydrochloride]: the “activity on A/M2 channels” value in series [3] was “did not display any activity”. Besides, the “cytotoxicity MCC” value in series [4] is 100 µM. Besides, the EC50 in series [1] (setting [7]) is at most 0.8 µM; in series [1] (setting [6]), under 0.8 µM.

For the molecule `C1CC(N2CC3C4CCC(C5CC45)C3C2)CCN1.Cl` (centres unmarked) [compound 9, 4-(4-Piperidinyl)-4-azatetracyclo[5.3.2.0^2,6.0^8.10]dodecane Dihydrochloride], in series [3], the “activity on A/M2 channels” value is given as “did not display any activity”. Also, in series [4], the “cytotoxicity MCC” value is 20 µM. In addition, the EC50 in series [1] (setting [7]) and in series [1] (setting [6]) was over 100 µM in each case.

As to `C1=CC2C1C1C=CC2C2CNCC12.Cl` (centres unmarked) [compound 11, 4-Azatetracyclo[5.4.2.0^2,6.0^8.11]trideca-9,12-diene Hydrochloride], the “inhibition of wt channel” value in series [3] is on record as “potent low-micromolar inhibitors”. Besides, in series [5], the “inhibition of plaque formation” value is recorded as “visible inhibition of plaque formation”. Besides, in series [1] (setting [6]), the EC50 was under 0.8 µM.

Take `C1CC2C1C1CCC2C2CNCC12.Cl` (centres unmarked) [compound 12, 4-Azatetracyclo[5.4.2.0^2,6.0^8.11]tridecane Hydrochloride]: in series [3], the “inhibition of wt channel” value was “potent low-micromolar inhibitors”. Besides, the “concentration at which visibly toxic” value in series [4] lay within 2000 to 8000 nM. For the same molecule, the “reduction in plaque size or number” value in series [5] is “clear”. In addition, the EC50 in series [1] (setting [7]) and in series [1] (setting [6]) was over 100 µM each time.

Consider `Cl.N=C(N)N1CC2C3C=CC(C4C=CC43)C2C1` (centres unmarked) [compound 13, 4-Amidino-4-azatetracyclo[5.4.2.0^2,6.0^8.11]trideca-9,12-diene Hydrochloride], for which the “inhibition of wt channel” value in series [3] was “potent low-micromolar inhibitors”. In addition, in series [4], the “cytotoxicity MCC” value turned out to be 20 µM. Also, the “inhibition of plaque formation” value in series [5] is listed as “visible inhibition of plaque formation”. Also, the EC50 in series [1] (setting [7]) and in series [1] (setting [6]) was over 100 µM throughout.

For `Cl.N=C(N)N1CC2C3CCC(C4CCC43)C2C1` (centres unmarked) [compound 14, 4-Amidino-4-azatetracyclo[5.4.2.0^2,6.0^8.11]tridecane Hydrochloride], the “inhibition of wt channel” value in series [3] is recorded as “potent low-micromolar inhibitors”. Besides, in series [4], the “concentration at which visibly toxic” value was 2000 to 8000 nM and the “cytotoxicity MCC” value was 4 µM. Further, the “reduction in plaque size or number” value in series [5] is “modest”. Moreover, the EC50 in series [1] (setting [7]) was over 100 µM. Besides, the EC50 in series [1] (setting [6]) was over 100 µM.

As to `CC12CC34CNCC35CC1(C)C(C)(C5)C2(C)C4.Cl` (centres unmarked) [compound 18, 7,8,9,10-Tetramethyl-3-azapentacyclo[7.2.1.1^5,8.0^1,5.0^7,10]tridecane Hydrochloride], in series [4], the “cytotoxicity MCC” value worked out at 100 µM. Also, the “inhibition of plaque formation” value in series [5] is “visible inhibition of plaque formation”.

With `CC12CC34CN(C(=N)N)CC35CC1(C)C(C)(C5)C2(C)C4.Cl` (centres unmarked) [compound 19, 3-Amidino-7,8,9,10-tetramethyl-3-azapentacyclo[7.2.1.1^5,8.0^1,5.0^7,10]tridecane Hydrochloride], in series [4], the “cytotoxicity MCC” value is at least 4 µM. The EC50 in series [1] (setting [7]) and in series [1] (setting [6]) was over 100 µM each time.
